We go through one compound from US6174896A, “Quinuclidine derivatives and medicinal composition thereof” (Yamanouchi Pharmaceutical Co., Ltd., priority 1994, dated 2001).

The test has as its system oxotremorine-induced salivary secretion. As to the kind of experiment: Test on salivary secretion in rat. The test is classed as in vivo. The settings on record: urethane-anesthetized male Wistar rat, oxotremorine 0.8 μmol/kg. The method, then: A male Wistar rat (160-190 g) was subjected to anesthesia with urethane (0.8 g/kg i.p.), and the test compound was administered (to the control group: solvent). Fifteen minutes later, 0.8 μmol/kg of oxotremorine was administered. In each case, the drug was administered through its femoral artery. The saliva secreted for 5 minutes after the administration of oxotremorine was collected and weighed. The inhibition ratio against the amount of saliva in the control group was determined and the dose of the test compound required for 50% inhibition of the amount of saliva in the control group was designated as ID50.

Regarding `CN1[C@@H]2CC[C@H]1C[C@@H](OC(=O)C(CO)c1ccccc1)C2` (stereo partly shown) [atropine], the “ID50 value (salivary secretion) compared with ED30 value (rhythmic bladder contraction)” value was “substantially the same”.
